According to US10980828B2, “Method of using cyclodextrin” (L&F Research LLC, priority 2012, dated 2021):

Key:
[1] = test system: ABCA1; assay: ABCA1 mRNA expression in kidney cortex of BTBR ob/ob mice; type: in vivo; details: BTBR ob/ob mice, 4,000 mg/kg s.c. three times per week, 5 months
Procedure: Quantitative Real Time PCR (QRT-PCR). Podocyte RNA was extracted using the RNAeasy Mini Kit (Qiagen). Reverse transcription was performed using the high-capacity cDNA reverse transcriptase kit (Applied Biosystems) according to the manufacturer's protocols. QRT-PCR was performed in the StepOnePlus real-time PCR system (Applied Biosystems) using the PerfeCTa® SYBR® Green FastMix (Quanta Biosciences). Relative gene expression was determined as 2^-ΔCt, with ΔCt being the difference between the cycle threshold (Ct) value of the target gene and Gapdh. For semi-quantitative expression analysis, PCR was performed and analyzed by gel electrophoresis. Amplification product intensities were determined using ImageJ software (NIH), values were normalized and expressed as fold changes in gene expression over GAPDH. The following primers were used: hABCA1-F, […]; hABCA1-R, […]; hLDL-R-F, […]; hLDL-R-R, […]; hHMG-CoA-R-F, […]; hHMG-CoA-R-R, […]; hGAPDH-F, […]; hGAPDH-R, Hs_ABCA1-SG QuantiTect-Primer-Assay (Qiagen); mAbca1-F, […]; mAbca1-R, […].
BTBR ob/ob mice treatment and analysis. […] Urine was collected, and body weight and glycemia (OneTouch) were determined weekly. Six mice per group were analyzed. […] Blood samples were analyzed for CBC, lipid panel, AST, ALT, Alkaline Phosphatase, GGT, and BUN in the Comparative Laboratory Core Facility, University of Miami. […]

[2] = test system: human podocytes; assay: Human podocytes exposed to DKD+ patient sera: immunofluorescence staining (filipin, phospho-caveolin, F-actin, cell blebbing); type: cell-based
Procedure: We used a previously established cell-based assay in which differentiated human podocytes are exposed to 4% patient sera for 24 hours to identify new pathways and targets in DKD. […] Excessive cholesterol deposition has indeed been described in glomeruli of rodent models of T1D and T2D and may contribute to DKD development and progression.
(§1) Human podocyte culture. Human podocytes were cultured and differentiated as previously described and serum starved in 0.2% FBS prior to experiments. When patient sera were utilized, starved cells were exposed to 4% patient sera for 24 hours. For insulin treatment experiments, 100 nmol insulin was added to the culture medium for 15 minutes after exposure to patient sera.
Immunofluorescence staining. […] Fluorescence detection was performed using Alexa Fluor secondary antibodies (Invitrogen). For cholesterol determination, filipin (Sigma) staining was performed as described. F-actin was visualized by Rhodamine Phalloidin (Invitrogen). Two hundred consecutive cells per condition were studied. Slides were prepared with DAPI enriched mounting media (Vectashield) and analyzed by confocal microscopy.

[3] = test system: BTBR ob/ob mice; assay: BTBR ob/ob mice treatment: body weight, glycemia, insulin, IPGTT, insulin sensitivity; type: in vivo
Procedure: (§2) BTBR ob/ob mice treatment and analysis. BTBR ob/ob mice were purchased from Jackson Laboratories. Mice were injected subcutaneously with 4,000 mg/kg CD or saline as reported previously, three times per week for 5 months. Urine was collected, and body weight and glycemia (OneTouch) were determined weekly. Six mice per group were analyzed. All animal procedures were approved by the Institutional Animal Care and Use Committee (IACUC). After isotonic saline perfusion, the right kidney was removed for cholesterol content determination and mRNA extraction. One left kidney pole was embedded in OCT, a second pole fixed in 4% PFA and paraffin-embedded for histological analysis. Blood samples were analyzed for CBC, lipid panel, AST, ALT, Alkaline Phosphatase, GGT, and BUN in the Comparative Laboratory Core Facility, University of Miami. Serum creatinine was determined by tandem mass spectrometry at the UAB-UCSD O'Brien Core Center, University of Alabama at Birmingham, using the methods previously described. The urine albumin content was measured by ELISA (Bethyl Laboratories). Urinary creatinine was assessed by an assay based on the Jaffe method (Stanbio). Values are expressed as μg albumin/mg creatinine. Fasting plasma insulin was determined by ELISA (Mercodia, SW). Intraperitoneal glucose tolerance tests (IPGTT) were performed 4 months after treatment; after 5-hr fasting, blood glucose was recorded at baseline and up to 180 minutes after a glucose bolus (1.5 g/kg). For insulin sensitivity, glycemia was monitored at baseline and up to 150 minutes after intraperitoneal injection of 4 mU/g of short acting insulin. Human islets from four different isolations were pretreated with 0.5 mM CD for one hour and perfused as described before to determine insulin release in response to glucose and KCl.

[4] = test system: human podocytes; assay: Western blotting and luminex (insulin stimulated AKT phosphorylation, MyD88) in podocytes exposed to patient sera; type: cell-based; details: DKD+ treated podocytes, 5 mM CD pretreatment 1 hour
Procedure: Human podocyte culture. Human podocytes were cultured and differentiated as previously described and serum starved in 0.2% FBS prior to experiments. When patient sera were utilized, starved cells were exposed to 4% patient sera for 24 hours. For insulin treatment experiments, 100 nmol insulin was added to the culture medium for 15 minutes after exposure to patient sera. […] Western blotting and luminex. Cell lysate collection and Western blotting was performed as previously described. The following primary antibodies were used: rabbit-polyclonal-anti-MyD88 (Cell Signaling), rabbit-polyclonal-anti-phosphorylated ([…]) or anti-total-AKT (Cell Signaling), mouse-monoclonal-anti-rhoA (Santa Cruz), or mouse-monoclonal-anti-Gapdh (6C5, Calbiochem) antibody. Secondary Anti-mouse-IgG-HRP or and Anti-rabbit-IgG-HRP Conjugate (Promega) were used. Image acquisition was performed using the chemiluminescent imager SRX-101A (Konica Minolta medical imaging, USA) and band densitometry was analyzed using ImageJ software (NIH). Alternatively, phosphorylated/total AKT was quantified using luminex technology as previously reported.

[5] = test system: human islets; assay: Human islet perifusion: glucose stimulated insulin release; type: cell-based; details: human islets from four preparations, pretreated with 0.5 mM CD for one hour, vs untreated
Procedure: as §2, with “Intraperitoneal glucose tolerance tests (IPGTT) were performed 4 months after treatment; after 5-hr fasting, blood glucose was recorded at baseline and up to 180 minutes after a glucose bolus (1.5 g/kg). For insulin sensitivity, glycemia was monitored at baseline and up to 150 minutes after intraperitoneal injection of 4 mU/g of short acting insulin. Human islets from four different isolations were pretreated with 0.5 mM CD for one hour and perfused as described before to determine insulin release in response to glucose and KCl.” left out

[6] = test system: ABCA1; assay: ABCA1 immunofluorescence staining in pancreata of BTBR mice; type: in vivo
Description: IPGTT performed one week prior to sacrifice were improved in CD treated homozygous mice when compared to homozygous controls. As improvement was observed despite a similar insulin sensitivity test, we analyzed the effect of low dose CD on the function of four different preparations of human islet cells. […] To determine whether the beneficial effect of CD on islet cell function was associated with the modulation of ABCA1 expression in pancreatic islets, we performed immunofluorescence staining using a rabbit polyclonal ABCA1 antibody (gift from Dr. A. Mendez) and determined ABCA1 expression as mean fluorescence intensity per pancreata analyzed. […] As hemolytic anemia and liver toxicity have been described while using other cyclodextrin derivatives in rodents and humans, and because we administered high dose CD for a period of 5 months, we studied hemoglobin, aspartate aminotransferase (AST), alanine transaminase (ALT) and gamma-glutamyltransferase (GGT) at sacrifice.

[7] = test system: human podocytes; assay: Determination of cholesterol content in podocytes exposed to patient sera; type: cell-based; details: DKD+ treated podocytes, 5 mM CD pretreatment 1 hour
Procedure: Human podocyte culture. Human podocytes were cultured and differentiated as previously described and serum starved in 0.2% FBS prior to experiments. When patient sera were utilized, starved cells were exposed to 4% patient sera for 24 hours. For insulin treatment experiments, 100 nmol insulin was added to the culture medium for 15 minutes after exposure to patient sera. […] Determination of cholesterol content. Esterified cholesterol was determined as difference between total and free cholesterol using an enzymatic assay and normalized to cell protein content. The cellular content of lipid droplets was determined using Oil red O (ORO). Cells were fixed and permeabilized as described above, washed in PBS and in 60% isopropanol, followed by incubation in ORO (0.5% ORO in isopropanol, 1:3 diluted) for 15 min at room temperature and counterstaining with hematoxylin for 1 min. The fraction of ORO positive cells over two hundred consecutive cells was calculated by bright field microscopy.

[8] = test system: BTBR mice; assay: Safety of chronic subcutaneous CD in BTBR mice (blood analysis at sacrifice); type: in vivo; details: at sacrifice, 4,000 mg/kg s.c. three times per week for 5 months
Procedure: as §2
FIG. 3 is a table illustrating the safety of CD in 4-week old BTBR mice treated following subcutaneous administration of three weekly injections of hydroxypropyl-β-cyclodextrin (CD, 4,000 mg/kg body weight) for five months.

[9] = test system: human podocytes; assay: Apoptosis analysis (Caspase-3 colorimetric assay) in podocytes exposed to patient sera; type: cell-based; details: DKD+ treated podocytes, 5 mM CD pretreatment 1 hour
Procedure: as §1, with “sera. […] Apoptosis analysis. Apoptosis was assessed using the Caspase-3/CPP32 Colorimetric Assay kit (Biovision) according to the manufacturer's description. Caspase 3 activity was normalized to cell number and expressed as fold change to controls.” for “sera.”

[10] = test system: BTBR ob/ob mice; assay: BTBR ob/ob mice treatment: diabetic kidney disease readouts; type: in vivo
Procedure: as §2
Histology, assessment of mesangial expansion and glomerular surface area. Periodic acid-Shiff's (PAS) staining of 4 μm thick tissue sections was performed. Twenty glomeruli per section were analyzed for mesangial expansion by semiquantitative analysis (scale 0-4) performed by two blinded independent investigators. The glomerular surface was delineated in each encountered glomerulus and the mean surface area calculated as described.

[11] = intravenous infusions; cited from earlier work
[12] = podocytes pretreated 1 hour with 5 mM CD, exposed to 4% DKD+ sera 24 hours
[13] = BTBR ob/ob mice, 4,000 mg/kg s.c. three times per week, after four months of treatment
[14] = sera collected at sacrifice, BTBR ob/ob mice, 4,000 mg/kg s.c. three times per week
[15] = serum at sacrifice, 4,000 mg/kg s.c. three times per week, 5 months

For `CC(O)COC[C@H]1O[C@@H]2O[C@H]3[C@H](O)[C@@H](O)[C@@H](O[C@H]4[C@H](O)[C@@H](O)[C@@H](O[C@H]5[C@H](O)[C@@H](O)[C@@H](O[C@H]6[C@H](O)[C@@H](O)[C@@H](O[C@H]7[C@H](O)[C@@H](O)[C@@H](O[C@H]8[C@H](O)[C@@H](O)[C@@H](O[C@H]1[C@H](O)[C@H]2O)O[C@@H]8COCC(C)O)O[C@@H]7COCC(C)O)O[C@@H]6COCC(C)O)O[C@@H]5COCC(C)O)O[C@@H]4COCC(C)O)O[C@@H]3COCC(C)O` (stereo partly drawn) [CD, hydroxypropyl-β-cyclodextrin], the “ABCA1 mRNA expression in the kidney cortex” value [1] was “did not affect”, the cell blebbing ([2]; human podocytes exposed to sera of patients with diabetic kidney disease, CD) was “prevents” and the “localization of phosphorylated caveolin to focal adhesion sites” value [2, 12] was “preserved the localization of phosphorylated caveolin to focal adhesion sites”. For the same compound, the “number of filipin-positive cells” value [2, 12] was “reduced the number of filipin-positive cells”, the “podocyte injury observed in vitro after exposure to patient sera” value ([2]; pretreated 1 hour with 5 mM CD or 1 μM simvastatin) was “prevented podocyte injury” and the body weight [3, 13] was “reduction of body weight”. The random glycemia [3, 13] was “improvement of random glycemia”, the “sensitivity to a single dose of short acting insulin” value ([3]; BTBR ob/ob mice, insulin 4 mU/g intraperitoneal) was “did not affect the sensitivity” and the “IPGTT (glucose tolerance)” value ([3]; CD treated homozygous mice vs homozygous controls, one week prior to sacrifice, glucose bolus 1.5 g/kg) was “improved”. The fasting plasma glucose [3, 14] was “significant improvement”, the fasting plasma insulin [3, 14] was “significant improvement” and the “DKD+ induced MyD88 expression” value [4] was “prevented”. The “DKD+ induced insulin resistance (insulin stimulated AKT phosphorylation)” value ([4]; 100 nmol insulin 15 minutes) was “prevented”, the “glucose stimulated insulin release” value [5] was “significant improvement in glucose stimulated insulin release” and the “ABCA1 expression in pancreata (mean fluorescence intensity)” value ([6]; heterozygous BTBR ob/+ mice, p<0.01) was “significantly increased ABCA1 expression”. The “ABCA1 expression in pancreata (mean fluorescence intensity)” value ([6]; homozygous BTBR ob/ob mice, p<0.001) was “significantly increased ABCA1 expression”, the “accumulation of esterified cholesterol” value [7] was “prevented the accumulation of total and esterified cholesterol” and the “accumulation of total cholesterol” value [7] was “prevented the accumulation of total and esterified cholesterol”. For the same compound, the “alanine transaminase (ALT)” value [8] was “No abnormalities”, the “aspartate aminotransferase (AST)” value [8] was “No abnormalities” and the “gamma-glutamyltransferase (GGT)” value [8] was “No abnormalities”. The hemoglobin [8] was “No abnormalities”, the “DKD+ induced apoptosis (cleaved Caspase 3)” value [9] was “prevented DKD+ induced apoptosis” and the “total cholesterol in the kidney cortex” value ([10]; BTBR ob/ob mice, 4,000 mg/kg s.c. three times per week, 5 months) was “significant reduction of total cholesterol”. The “albumin/creatinine ratios in morning spot urine” value ([10]; BTBR ob/ob mice, 4,000 mg/kg s.c. three times per week, at 3 months, vs untreated, p<0.001) was “significant down-regulation”, the kidney weight ([10]; BTBR ob/ob mice, 4,000 mg/kg s.c. three times per week, at sacrifice (5 months)) was “reduction of kidney weight” and the “albumin/creatinine ratios in morning spot urine” value ([10]; BTBR ob/ob mice, 4,000 mg/kg s.c. three times per week, until sacrifice (5 months)) was “decrease persisted until sacrifice”. The glomerular surface area ([10]; PAS stained kidney sections, five months of treatment) was “without affecting the glomerular surface area”, the mesangial expansion ([10]; PAS stained kidney sections, semiquantitative scale 0-4, five months of treatment) was “reduction of mesangial expansion” and the albumin excretion rates ([10]; homozygous BTBR ob/ob mice, 4,000 mg/kg s.c. three times per week, up to 2 months after treatment initiation) was “no changes”. For the same compound, the “Blood urea nitrogen (BUN)” value [10, 15] was “not significantly affected”, the serum creatinine [10, 15] was “not significantly affected” and the “crossing from the bloodstream into the brain” value [11] was “does not cross from the bloodstream into the brain”.
